Measurements: patent US20190211317A1, “PEPTIDES AND NANOPARTICLES FOR INTRACELLULAR DELIVERY OF GENOME-EDITING MOLECULES” (Aadigen, LLC, priority 2016, published 2019)
Values joined by “and” are separate entries in the source; they are usually repeats but may differ in a detail not shown here. Equal entries are not always repeated. No end group written: not given here.

Tests used:
[1] = tested on: EGFP reporter gene in EGFP-U2OS, EGFP-HEK, EGFP-JURKAT cells; experiment: EGFP reporter gene disruption from CPP delivery of CAS9:sgRNA (flow cytometry); format: cell-based, human; conditions: for reduction of EGFP-positive cells: EGFP-JURKAT; for decrease in EGFP expression: CAS9:gRNA 50 nM, CPP:cargo 20:1; for reduction of EGFP-expressing cells / loss of EGFP expression: JURKAT;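 on all read-outs here: cells carrying one integrated EGFP reporter received peptide-complexed CAS9 preloaded 1:1 with EGFP sgRNA, cultured 72 h, then EGFP level read by flow cytometry, lipofectamine 2000 and RNAiMAX as positive controls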
Experimental: Efficacy of CPP-mediated delivery was quantified using a well-established CAS9-induced gene disruption method (Fu et al, 2013, supra), by targeting a specific site in the exogenous EGFP gene reporter in three human cell lines expressing EGFP (GFP-U2OS, EGFP-HEK, EGFP-JURKAT).
Stock solutions of amphipathic peptides were prepared at 1 mg/mL in distilled water and sonicated for 10 min. CAS9 protein was preloaded with purified EGFP sgRNA at a molar ratio of 1:1 and incubated for 10 min prior to forming complexes with the peptides. Preloaded CAS9/gRNA complexes (10 nM, 25 nM, and 50 nM) were mixed with CPPs at 5:1, 10:1 and 20:1 molar ratios of CPP to cargo and incubated for 30 min at 37° C. prior to cell transfection.
Cell line containing a single integrated EGFP reporter gene (GFP-U2OS, EGFP-HEK and EGFP-JURKAT) were cultured in Dulbecco's Modified Eagle's Medium (DMEM), supplemented with 2 mM glutamine, 1% antibiotics (streptomycin 10,000 μg/mL, penicillin, 10,000 IU/mL) and 10% (w/v) foetal calf serum (FCS) at 37° C. in a humidified atmosphere containing 5% CO2. A total of 150,000 cells seeded in a 35 mm dish the day prior to transfection were grown to 50-60% confluence and overlaid with 200 μl of preformed complexes, incubated for 3-5 min, then 400 μl of DMEM was added. After 30 min incubation at 37° C., 1 mL of fresh DMEM containing 16% FCS was added to reach a final FCS concentration of 10%, without removing the overlay of CPP/CAS9-gRNA complexes. Cells were returned to the incubator for 72 hours.
CAS9-induced double-strand break formation was analyzed using flow cytometry by monitoring level of EGFP expression. […] Both lipofectamine 2000 and RNAiMAX delivery methods were used as positive controls.

[2] = tested on: endogenous EMX1, AAVS and HPRT genes in U2OS and Human (H9) embryonic stem cells; experiment: Delivery of multiple RGEN:gRNA complexes: EMX1, AAVS, HPRT editing in U2OS and H9 ES cells (T7E1); format: cell-based
Experimental: (§1) RNAiMAX delivery method was used as a positive control.
(§2) U2OS cells were treated as described previously. H9 embryonic stem cells were cultured in Dulbecco's modified Eagle's medium with 4 mM L-glutamine adjusted to contain 1.5 g/L sodium bicarbonate and 4.5 g/L glucose and supplemented with 0.1 mM 2-mercaptoethanol, 85%; and 15% ES-Cell Qualified fetal bovine serum. […] CAS9-induced double-strand break formation followed by repair through NHEJ was analyzed 72 hr after transfection by T7E1 assay and quantified using Fragment Analyzer System. The deletion (indel) frequencies in EMX1, AAVS and HPRT genes were quantified using T7E1 assay. Data for on-target mutations induced by RGEN:gRNA are reported as an average of 3 separate experiments.

[3] = tested on: endogenous EMX1 and exogenous EGFP reporter genes in GFP-U2OS, EGFP-JURKAT cells; experiment: Delivery of multiple RGEN/gRNA complexes: EMX1 and EGFP editing; format: cell-based, human
Experimental: RNAiMAX delivery was used as positive control. Cells were treated as described previously and CAS9-induced NHEJ analyzed 72 hr after transfection. […] The deletion (indel) frequency in the EMX1 gene was quantified using the T7E1 assay and loss of EGFP expression was monitored by flow cytometry. Data for on-target mutations induced by RGEN/gRNA are reported as an average of 3 separate experiments.

[4] = tested on: endogenous EMX1 gene in U2OS, JURKAT and K562 cells; experiment: EMX1 gene editing from CPP delivery of CAS9/gRNA (T7E1 assay); format: cell-based, human
Experimental: RNAiMAX delivery was used as a positive control as it was previously reported to show better results than Lipofectamine 2000 (Zuris et al., 2015, supra). […] Cells were returned to the incubator for 72 hours.

[5] = CPP/CAS9 and CPP/CAS9:gRNA particle size, polydispersity, zeta potential (Zetasizer 4); format: physicochemical
Experimental: The CPP/CAS9 and CPP/CAS9/sgRNA particles were further characterized; the mean size, polydispersity and zeta potential were measured with Zetasizer 4 apparatus (Malvern Ltd). […] The mean size and the polydispersity of the CCP/CAS9 and CCP/CAS9:gRNA complexes were determined at 25° C. for 3 min per measurement and zeta potential was measured with Zetasizer 4 apparatus (Malvern Ltd).

[6] = tested on: EGFP-U2OS, EGFP-HEK, EGFP-JURKAT cells; experiment: Toxicity of CPP/CAS9/gRNA complexes (MTT assay); format: cell-based; conditions: three cell lines; concentrations up to 100 nM; 24 h
Experimental: The robust EGFP disruption observed in the three cell lines was found not to be the result of cellular toxicity. […] A total of 30,000 cells seeded in 24-well plates the day prior to transfection were incubated with increasing concentrations of CPP/CAS9/gRNA (complexed at a 10:1 or 20:1 molar ratio of CPP to preloaded CAS9/gRNA complex) ranging from 1 to 200 nM for 30 min prior to addition of medium to reach a final 10% concentration of FCS. Cytotoxic response was measured 24 hours later by colorimetric MTT assay (Sigma, Germany). For MTT assay, cell culture medium was removed and replaced with PBS containing 2.5 mg/ml MTT for 4 hours. Results correspond to the average of 3 separate experiments. […] Viability was reduced by less than 10% at 200 nM. In contrast, at […] for Lipofectamine 2000 or RNAiMAX, between 60-70% and 20-25% cell death was observed, depending on cell line. Moreover, both lipid methods appeared to be highly toxic on JURKAT cells, inducing 75% (lipofectamine 2000) or 45% (RNAiMAX) cell death.

[7] = tested on: endogenous EMX1, AAVS and HPRT genes in Mouse (ESF-158) embryonic stem cells; experiment: Delivery of multiple RGEN:gRNA complexes: EMX1, AAVS, HPRT editing in mouse ES cells (T7E1); format: cell-based
Experimental: as §1, §2

[8] = tested on: hPD1 gene in human T cells; experiment: hPD1 gene editing in primary human T cells (T7E1 assay); format: cell-based
Experimental: T cells were isolated from PBMCs (2 different donors) using anti-CD3/anti-CD28 antibodies bound to paramagnetic beads (Dynabeads ClinExVivo CD3/CD28, Invitrogen) at a ratio of 3:1 (beads:cells). The cells and beads were co-incubated for 2 hours at room temperature and CD3′ cell enrichment was performed using Dynal ClinExVIVO MPC magnet (Thermo Fisher). The anti-CD3/anti-CD28 paramagnetic beads were removed, washed and concentrated. Cells in the CD3′ fraction were resuspended in activation media at a concentration of 1×10^6 cells/ml with AIM-V medium (Thermo Fishers) supplemented with 10% fetal calf serum, 300 IU/ml IL2 and 50 ng/ml OKT3 (MuromonAB-CD3) for two days.
Cells were transfected by electroporation with CD-19 plasmid or gRNA/CAS9 (5 μg/10 μg) using a Nucleofector 2b (Lonza, Germany) with the Amaxa Human T cells Nucleofector Kit, VPA-1002 (Lonza, Germany). 5×10^6 cells were washed twice with DPBS by centrifuging at 800 rpm for 5 minutes and resuspended in 100 ^l transfection buffer, and then transferred into the electroporation cuvette. An optimized program selected for both high transfection and high efficiency on T cells was used. After electroporation, cells were resuspended in 500 ^l pre-warmed AIM-V medium containing 10% FBS and incubated at 37° C. in 5% CO2. The transfection efficiency was evaluated after 48 hr by flow cytometry or T7E1 assay.
As control, CAS9 loaded with gRNA targeting GFP was used.
Cells were returned to the incubator for 72 hours. CAS9-induced double-strand break followed by repair through non-homologous end joining (NHEJ) was analyzed by either the T7E1 assay or using the Genome Cleavage Detection kit (GCD Thermo Fisher) and quantified using Fragment Analyzer System. The indel frequency in the target gene was quantified using the T7E1 assay. The cultures were expanded and analyzed for viability and PD1 levels every 10 days. T cell expansion medium contained AIM V medium, supplemented with 5% heat-inactivated human AB Serum, 1% Gluta-Max, and 300 IU/mL IL-2.

[9] = tested on: endogenous hPD1 gene in JURKAT and K562 cells; experiment: hPD1 gene editing in T cell lines (T7E1 assay); format: cell-based, human; conditions: CAS9/sgRNA 5 μg/10 μg
Experimental: CAS9 protein was preloaded with purified sgRNA at a molar ratio of 1:1 and incubated for 10 min prior to forming complexes with peptides.
5×10^6 cells were washed twice with DPBS by centrifuging at 800 rpm for 5 minutes and resuspended in 100 ^l transfection buffer, and then transferred into the electroporation cuvette. An optimized program selected for both high transfection and high efficiency on T cells was used. After electroporation, cells were resuspended in 500 ^l pre-warmed AIM-V medium containing 10% FBS and incubated at 37° C. in 5% CO2. The transfection efficiency was evaluated after 48 hr by flow cytometry or T7E1 assay.
RNAiMAX delivery method was used as positive control. Cells were either resuspended in or overlaid with 100 μl of preformed complexes, incubated for 3-5 min, and then 300 μl of DMEM was added. […] The indel frequency in the hPD1 gene was quantified using the T7E1 assay.

N=C(N)NCCC[C@H](NC(=O)[C@H](CCCNC(=N)N)NC(=O)[C@H](CCCCN)NC(=O)[C@H](CCCNC(=N)N)NC(=O)[C@@H]1CCCN1C(=O)[C@H](Cc1c[nH]c2ccccc12)NC(=O)[C@H](CCC(=O)O)NC(=O)[C@H](CCCNC(=N)N)NC(=O)[C@H](Cc1c[nH]c2ccccc12)NC(=O)[C@H](Cc1c[nH]c2ccccc12)NC(=O)[C@H](CCCNC(=N)N)NC(=O)[C@H](CCC(=O)O)NC(=O)[C@H](Cc1c[nH]c2ccccc12)NC(=O)[C@H](Cc1c[nH]c2ccccc12)NC(=O)[C@H](CCCCN)NC(=O)CCN)C(=O)O [VEPEP-3b]
reduction of EGFP-positive cells [1]: 87%
reduction of number of EGFP-expressing cells ([1]; HEK, 1 nM CAS9:gRNA): 71%
decrease in EGFP expression ([1]; HEK): 93%
reduction of EGFP-expressing cells / loss of EGFP expression ([1]; 1 nM CAS9:gRNA): 55%
reduction of number of EGFP-expressing cells ([1]; U2OS, 1 nM CAS9:gRNA): 68%
decrease in EGFP expression ([1]; U2OS): 92%
Mean indel Frequency ± S.E.M ([2]; H9, AAVS): 71 ± 7%
Mean indel Frequency ± S.E.M ([2]; H9, EMX1): 67 ± 6%
Mean indel Frequency ± S.E.M ([2]; H9, HPRT): 70 ± 4%
Mean indel Frequency ± S.E.M ([2]; U2OS, AAVS): 75 ± 7%
Mean indel Frequency ± S.E.M ([2]; U2OS, EMX1, 20 nM each complex): 82 ± 5%
Mean indel Frequency ± S.E.M ([2]; U2OS, HPRT): 84 ± 6%
Mean indel Frequency ± S.E.M ([3]; JURKAT, EGFP): 84 ± 7%
Mean indel Frequency ± S.E.M ([3]; JURKAT, EMX1): 79 ± 7%
Mean indel Frequency ± S.E.M ([3]; U2OS, EGFP, 25 nM each complex): 80 ± 5%
Mean indel Frequency ± S.E.M ([3]; U2OS, EMX1): 82 ± 6%
Mean indel Frequency ± S.E.M ([4]; JURICAT, CAS9/sgRNA 25 nM): 69% and 69 ± 8%
Mean indel Frequency ± S.E.M ([4]; JURKAT, CAS9/sgRNA 50 nM): 71 ± 5%
Mean indel Frequency ± S.E.M ([4]; K562, CAS9/sgRNA 25 nM): 79% and 79 ± 5%
Mean indel Frequency ± S.E.M ([4]; K562, CAS9/sgRNA 50 nM): 81 ± 7%
Mean indel Frequency ± S.E.M ([4]; U2OS, CAS9/sgRNA 25 nM, 20:1): 75% and 75 ± 7%
Mean indel Frequency ± S.E.M ([4]; U2OS, CAS9/sgRNA 50 nM): 77 ± 5%
PI ([5]; Cas9:gRNA, molar ratio 10/1): 0.35 ± 0.1
Size ([5]; Cas9:gRNA, molar ratio 10/1): 38 ± 4 nm
zeta ([5]; Cas9:gRNA, molar ratio 10/1): 27.0 ± 4 MV
PI ([5]; Cas9:gRNA, molar ratio 20/1): 0.37 ± 0.1
Size ([5]; Cas9:gRNA, molar ratio 20/1): 51 ± 5 nm
zeta ([5]; Cas9:gRNA, molar ratio 20/1): 25.3 ± 7 MV
Pt ([5]; Cas9, molar ratio 10/1): 0.33 ± 0.1
zeta ([5]; Cas9, molar ratio 10/1): 21.0 ± 5 mV
Size ([5]; Cas9, molar ratio 10/1, 0.9% NaCl): 45 ± 5 nm
Pt ([5]; Cas9, molar ratio 20/1): 0.35 ± 0.1
Size ([5]; Cas9, molar ratio 20/1): 52 ± 5 nm
zeta ([5]; Cas9, molar ratio 20/1): 17.0 ± 5 mV
formation of stable nanoparticles ([5]; with CAS9 and CAS9:gRNA complex, molar ratio 10:1 or 20:1): able to form stable nanoparticles
Mean diameter ([5]; with CAS9 and CAS9:gRNA, molar ratio 10:1 or 20:1): about 50 nm
toxicity [6]: no toxicity
Mean indel Frequency ± S.E.M ([7]; AAVS): 79 ± 5%
Mean indel Frequency ± S.E.M ([7]; EMX1): 84 ± 6%
Mean indel Frequency ± S.E.M ([7]; HPRT): 85 ± 7%

GLWRALWRLLRSLWRLLWKV [CADY, reference compound]
Mean indel Frequency ± s.e.m ([8]; Donor 1, CAS9/sgRNA 2.5 μg/5 μg): 0%
Mean indel Frequency ± s.e.m ([8]; Donor 1, CAS9/sgRNA 5 μg/10 μg): 0%
Mean indel Frequency ± s.e.m ([8]; Donor 2, CAS9/sgRNA 2.5 μg/5 μg): 0%
Mean indel Frequency ± s.e.m ([8]; Donor 2, CAS9/sgRNA 5 μg/10 μg): 0%
mean indel frequency of hPD1 gene ([8]; T cells from the two donors, 5 μg/10 μg CAS9/gRNA): No editing
reduction of EGFP-positive cells [1]: 18%
decrease in EGFP expression ([1]; HEK): 42%
reduction of EGFP-expressing cells / loss of EGFP expression ([1]; 1 nM CAS9:gRNA): no change in EGFP expression
decrease in EGFP expression ([1]; U2OS): 33%
loss of EGFP expression ([1]; both cell lines (U2OS, HEK), 1 nM CAS9:gRNA): no change in EGFP expression
Mean indel Frequency ± s.e.m ([9]; JURKAT): 12 ± 9%
Mean indel Frequency ± s.e.m ([9]; K562): 15 ± 9%
complex formation with CAS9 [5]: did not form any complex
PI ([5]; Cas9:gRNA, molar ratio 20/1): 0.6 and 0.6 ± 0.2
Size ([5]; Cas9:gRNA, molar ratio 20/1): 350±20 nm
zeta ([5]; Cas9:gRNA, molar ratio 20/1): 45 ± 8 MV
formation of stable particles with preloaded CAS9:gRNA complex ([5]; molar ratio 10:1): neither CADY nor VEPEP-9 formed stable particles
